According to paper PMC8244865, “Recruitment of phospholipase Cγ1 to the non-structural membrane protein pK15 of Kaposi Sarcoma-associated herpesvirus promotes its Src-dependent phosphorylation” (PLoS Pathogens, 2021):

How the values were obtained:
[1] = tested on: PLCγ1 tSH2 domain (Src-mediated phosphorylation, Y^783); test: in vitro Src kinase assay, PLCγ1 tSH2 Y783 phosphorylation; format: biochemical; conditions: 0.6 μM tSH2, 0.085 μM Src, 1.25–5 μM peptide or fixed 5.0 μM, 37°C, 1 hour or 45 min (method), pY783 Western blot
Description: Fig 7 The pK15 CT domain enhances Src-mediated phosphorylation of the PLCγ1 tSH2 domain. (A) The purified PLCγ1 tSH2 domain (0.6 μM) was incubated with limiting amounts (0.085 μM) of recombinant purified Src kinase expressed in insect cells in the presence of increasing concentrations (1.25–5 μM) of phosphorylated peptides representing the last 12 (pK15 12mer) or 35 (pK15 35mer) amino acids of the pK15 cytoplasmic domain for 1 hour at 37°C. The reaction was stopped using SDS sample buffer and analysed by SDS-PAGE and Western blot using an antibody to the PLCγ1 pY^783 residue (top panel) or to the His tag on the recombinant tSH2 domain (bottom panel). (B) Same as above, except that a fixed concentration (5.0 μM) of the 12mer peptide, the 35mer peptide or the pK15 truncation construct GST-pK15 CT^N2 [51] were used. The increased phosphorylation of the tSH2 domain in the presence of the 35mer peptide and pK15 CT^N2 can be seen. (C) Increasing concentrations of the phosphorylated pK15 12mer peptide were used to inhibit the increased src-mediated phosphorylation of tSH2 induced by 2.5 μM of the pK15 35mer peptide. Experimental conditions were as in panel A.
To test the impact of a pK15 CT fragment (pK15 CT^N2) or phosphorylated pK15 peptides representing the last 12 (DDLp[…]) or 35 ([…]pYEEVLFRN) amino acids of pK15 CT on the Src-mediated phosphorylation of the PLCγ1 tSH2 domain, GST-pK15CT^N2 was first phosphorylated with Src in vitro as described in the preceding paragraph. Phosphorylated GST-pK15 CT^N2 or the phosphorylated pK15 peptides, suspended in 50 mM Tris pH7.4, 300 mM NaCl, 1 mM DTT, were then added to the purified recombinant tSH2 domain (0.6 μM) together with a limiting amount of recombinant Src kinase (0.085 μM) in kinase buffer (20 mM Tris pH7.4, 20 mM NaCl, 1 mM DTT, 10 mM MgCl2, 0.2 mM ATP, 0.5 mM Sodium orthovanadate, 0.5 mM β-glycerophosphate) and the reaction allowed to proceed for 45 min. The reaction mix was then analysed by Western blot using an antibody to the phosphorylated Y^783 in the linker region of the PLCγ1 tSH2 domain and an antibody to the 5x His tag. To test the inhibitory effect of the phosphorylated 12mer pK15 peptide on the enhancement of PLCγ1 tSH2 domain phosphorylation induced by the pK15 35mer peptide, increasing concentrations (1.25–5.0 μM) of the 12mer peptide were added to a reaction mix containing the purified recombinant tSH2 domain (2.5 μM), the phosphorylated pK15 35mer (2.5 μM), and recombinant Src kinase (0.085 μM). Following a 45 min incubation at 37°C, the reaction mixture was analysed by Western blot as above.

[2] = tested on: PLCγ1 SA and PLCγ1 tSH2, nSH2 R^586L mutant; test: AlphaLISA, SA and tSH2 R586L mutant; format: binding; conditions: phosphorylated; 300 nM each protein; versus wt PLCγ1 SA and tSH2
Description: Fig 4 The PLCγ1 cSH2 domain is required for the binding of PLCγ1 to phosphorylated pK15 in vitro and may serve as a dominant-negative inhibitor. GST-fused pK15 cytoplasmic tail WT (A), or its truncated mutant N2 [51] (B), were phosphorylated in vitro by 2xStrep-Src and an AlphaLISA was performed with the indicated His-tagged fragments of PLCγ1. Mean and standard deviation from at least two independent experiments with two technical replicates each are depicted. GST fusion proteins of the N1 (C) or N2 (D) truncation mutants of the pK15 cytoplasmic tail were phosphorylated in vitro by 2xStrep-Src and their interaction with recombinant purified PLCγ1 tSH2 (tandem SH2) or SA (γ-specific array) domains was measured by AlphaLISA in the presence of increasing concentrations (300 nM, 600 nM, 900 nM, 1200 nM) of the purified PLCγ1 cSH2. […] After 48h lysates were collected and analysed by Western blot using an antibody to PLCγ1 pY^783 to assess the level of PLCγ1 phosphorylation. (F) The intensities of the pPLCγ1 bands shown in panel E were quantified by densitometry, normalized to the values obtained with the empty vector (EV) in the presence of pK15, and plotted as relative values. […]
His-tagged PLCγ1 (SA, tSH2 or the isolated SH2 domains) was incubated at room temperature with GST-tagged K15P or its mutants for 1 hour. […] Emission at 615 nm was detected on BioTek Synergy 2 plate reader.

| Molecule | effect on Src-mediated phosphorylation of PLCγ1 tSH2 ([1]; listed as 12mer pK15 peptide) | effect on Src-mediated phosphorylation of PLCγ1 tSH2 ([1]; listed as 12mer peptide) | interaction (AlphaLISA) [2] | effect on Src-mediated phosphorylation of PLCγ1 tSH2 [1] |
| --- | --- | --- | --- | --- |
| DDLpYEEVLFPRN [pK15 12mer, phosphorylated peptide representing the last 12 amino acids of pK15 CT (DDLp…)] | moderate inhibition | cannot enhance the Src-mediated phosphorylation of PLCγ1 |  |  |
| pK15 CT^WT: pK15 cytoplasmic tail fused to GST at its N-terminal end, phosphorylated in vitro by Src (protein, tyrosine-phosphorylated in vitro by Src; sites not stated for this construct; left off: GST, N-terminal, kept) SQLLNEVELQEVNRDPPNVFGYASILVSGAEESREPSPQPDQSGMSILRVDGGSAFRIDTAQAATQPTDDLYEEVLFPRN |  |  | to a similar extent as wt PLCγ1 SA and PLCγ1 tSH2 | enhanced the Src-mediated phosphorylation of the PLCγ1 tSH2 domain |
